Data reported in the NIST ThermoML archive (doi:10.1016/j.jct.2010.11.007).

Assay: refractive index (Na D-line) (dimensionless); xn = mol fraction of the nth substance listed
Conditions: 101 kPa, Liquid, Standard Abbe refractometry

C=CC(C)(O)CCC=C(C)C (stereo not drawn) [3,7-dimethyl-1,6-octadien-3-ol] + CCCO
refractive index
Conditions | 283.15 K | 298.15 K | 313.15 K | 328.15 K
x1 = 0.0533 | 1.39881 | 1.39255 | 1.38616 | 1.3796
x1 = 0.1051 | 1.40707 | 1.40075 | 1.39427 | 1.38756
x1 = 0.2014 | 1.41983 | 1.41337 | 1.40675 | 1.39986
x1 = 0.3032 | 1.43049 | – | – | –
x1 = 0.3049 | – | 1.42409 | 1.41728 | 1.41023
x1 = 0.3869 | 1.43761 | 1.43088 | 1.42395 | 1.41687
x1 = 0.4929 | – | – | – | 1.42395
x1 = 0.4951 | 1.44504 | 1.4382 | 1.43113 | –
x1 = 0.5917 | 1.45054 | 1.44367 | 1.43657 | 1.42935
x1 = 0.6895 | 1.45535 | 1.4484 | 1.44114 | 1.4339
x1 = 0.767 | – | – | – | 1.4371
x1 = 0.7765 | 1.45896 | 1.45193 | 1.44473 | –
x1 = 0.8735 | 1.46254 | 1.45549 | 1.44824 | 1.44085
x1 = 0.9296 | 1.46441 | 1.4573 | 1.44997 | 1.44249
x1 = 1 | 1.4666 | 1.45946 | 1.45215 | 1.44473
